This assay concerns the target T1, Macrophage-Derived Chemokine (MDC/CCL22) (Homo sapiens, UniProt O00626).
T1 sequence (O00626 25-93): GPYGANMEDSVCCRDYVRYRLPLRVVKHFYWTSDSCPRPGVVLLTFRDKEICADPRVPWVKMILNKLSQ
The experiment in a line: TRIC-r calcium mobilization, Indo-1, EGFP-CCR4+Gqi5+ HEK cells. The assay is classed as cell-based.

pIC50: −log10 of the molar value.

In general, pIC50 refers to the negative decadic logarithm of the IC50, by convention in mol/L. `COc1cc(/C=C/C(=O)NCCc2c[nH]c3ccc(O)cc23)ccc1O` [N-Feruloylserotonin]: the pIC50 was 4.82.

For the origin of these results see publication PMC8455218, “A Cornflower Extract Containing N-Feruloylserotonin Reduces Inflammation in Human Skin by Neutralizing CCL17 and CCL22 and Inhibiting COX-2 and 5-LOX” (Mediators of Inflammation, 2021).
